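A five-concentration, 48-hour dose response in 96-well plates underlies each endpoint, interpolated linearly between surrounding concentrations. TGI: total growth inhibition.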
Experiments:
Assay in all cases: NCI anticancer screen, dose series, 48 h
[1] = tested on: 786-0 renal
[2] = tested on: A498 renal
[3] = tested on: A549 NSCLC
[4] = tested on: BT-549 breast
[5] = tested on: CAKI-1 renal
[6] = tested on: CCRF-CEM leukemia
[7] = tested on: COLO 205 colon
[8] = tested on: DU-145 prostate
[9] = tested on: EKVX NSCLC
[10] = tested on: HCC-2998 colon
[11] = tested on: HCT-116 colon
[12] = tested on: HCT-15 colon
[13] = tested on: HL-60(TB) leukemia
[14] = tested on: HS 578T breast
[15] = tested on: HT29 colon
[16] = tested on: K-562 leukemia
[17] = tested on: KM12 colon
[18] = tested on: LOX IMVI melanoma
[19] = tested on: M14 melanoma
[20] = tested on: MALME-3M melanoma
[21] = tested on: MCF7 breast
[22] = tested on: MDA-MB-231 breast
[23] = tested on: MDA-MB-435
[24] = tested on: MDA-N
[25] = tested on: MOLT-4 leukemia
[26] = tested on: NCI-H226 lung
[27] = tested on: NCI-H23 lung
[28] = tested on: NCI-H460 lung
[29] = tested on: NCI-H522 lung
[30] = tested on: NCI/ADR-RES ovarian
[31] = tested on: OVCAR-3 ovarian
[32] = tested on: OVCAR-4 ovarian
[33] = tested on: OVCAR-5 ovarian
[34] = tested on: OVCAR-8 ovarian
[35] = tested on: PC-3 prostate
[36] = tested on: RPMI-8226 leukemia
[37] = tested on: RXF 393 renal
[38] = tested on: SF-268 CNS
[39] = tested on: SF-539 CNS
[40] = tested on: SK-MEL-2 melanoma
[41] = tested on: SK-MEL-28 melanoma
[42] = tested on: SK-MEL-5 melanoma
[43] = tested on: SK-OV-3 ovarian
[44] = tested on: SN12C renal
[45] = tested on: SNB-19 CNS
[46] = tested on: SNB-75 CNS
[47] = tested on: SR leukemia
[48] = tested on: SW-620 colon
[49] = tested on: T-47D breast
[50] = tested on: TK-10 renal
[51] = tested on: U251 CNS
[52] = tested on: UACC-257 melanoma
[53] = tested on: UACC-62 melanoma
[54] = tested on: UO-31 renal
[55] = tested on: ACHN renal
[56] = tested on: HOP-62 NSCLC
[57] = tested on: IGROV1 ovarian
[58] = tested on: SF-295 CNS

O=c1[nH][nH]c(=O)n1CCCCCCn1c(=O)[nH][nH]c1=O
TGI [1]: > 100 µM | TGI [2]: > 100 µM | TGI [3]: > 100 µM | TGI [4]: > 100 µM | TGI [5]: > 100 µM | TGI [6]: > 100 µM | TGI [7]: > 100 µM | TGI [8]: > 100 µM | TGI [9]: > 100 µM | TGI [10]: > 100 µM | TGI [11]: > 100 µM | TGI [12]: > 100 µM | TGI [13]: > 100 µM | TGI [14]: > 100 µM | TGI [15]: > 100 µM | TGI [16]: > 100 µM | TGI [17]: > 100 µM | TGI [18]: > 100 µM | TGI [19]: > 100 µM | TGI [20]: > 100 µM | TGI [21]: > 100 µM | TGI [22]: > 100 µM | TGI [23]: > 100 µM | TGI [24]: > 100 µM | TGI [25]: > 100 µM | TGI [26]: > 100 µM | TGI [27]: > 100 µM | TGI [28]: > 100 µM | TGI [29]: > 100 µM | TGI [30]: > 100 µM | TGI [31]: > 100 µM | TGI [32]: > 100 µM | TGI [33]: > 100 µM | TGI [34]: > 100 µM | TGI [35]: > 100 µM | TGI [36]: > 100 µM | TGI [37]: > 100 µM | TGI [38]: > 100 µM | TGI [39]: > 100 µM | TGI [40]: > 100 µM | TGI [41]: > 100 µM | TGI [42]: > 100 µM | TGI [43]: > 100 µM | TGI [44]: > 100 µM | TGI [45]: > 100 µM | TGI [46]: > 100 µM | TGI [47]: > 100 µM | TGI [48]: > 100 µM | TGI [49]: > 100 µM | TGI [50]: > 100 µM | TGI [51]: > 100 µM | TGI [52]: > 100 µM | TGI [53]: > 100 µM | TGI [54]: > 100 µM

Cc1ccc(C2=CC(=O)OC(C[P+](c3ccccc3)(c3ccccc3)c3ccccc3)(c3ccccc3)O2)cc1 (stereo not given)
TGI [1]: 35.7 µM | TGI [2]: 29.1 µM | TGI [3]: 34.3 µM | TGI [55]: 39.8 µM | TGI [4]: 49.2 µM | TGI [5]: 29.3 µM | TGI [6]: 99.4 µM | TGI [7]: 28.3 µM | TGI [8]: 30.3 µM | TGI [9]: 30 µM | TGI [10]: 38.2 µM | TGI [11]: 29.2 µM | TGI [12]: 42.8 µM | TGI [13]: 47.3 µM | TGI [56]: 34.9 µM | TGI [14]: 42.6 µM | TGI [15]: 29.1 µM | TGI [57]: 27.4 µM | TGI [16]: > 100 µM | TGI [17]: 34.3 µM | TGI [19]: 32 µM | TGI [20]: 30.5 µM | TGI [21]: 56.6 µM | TGI [22]: 82.3 µM | TGI [23]: 30.7 µM | TGI [24]: 29.2 µM | TGI [25]: 67 µM | TGI [26]: 60.4 µM | TGI [27]: 27.2 µM | TGI [28]: 43.8 µM | TGI [29]: 26 µM | TGI [30]: 40.2 µM | TGI [31]: 30.7 µM | TGI [32]: 31.5 µM | TGI [33]: 42.7 µM | TGI [34]: 51.1 µM | TGI [35]: 49 µM | TGI [36]: 46.1 µM | TGI [37]: 73.2 µM | TGI [38]: 38.2 µM | TGI [58]: 45.5 µM | TGI [39]: 33.8 µM | TGI [40]: 29.2 µM | TGI [41]: 33.5 µM | TGI [42]: 29.8 µM | TGI [43]: 32.4 µM | TGI [44]: 57.7 µM | TGI [45]: 30.9 µM | TGI [46]: 36.2 µM | TGI [47]: 61.2 µM | TGI [49]: 41.1 µM | TGI [50]: 35.6 µM | TGI [51]: 34.8 µM | TGI [52]: 30.8 µM | TGI [53]: 30.5 µM | TGI [54]: 30.9 µM
